Results: ChEMBL document CHEMBL1124217, “2,4-Diamino-5-benzylpyrimidines and analogues as antibacterial agents. 9. Lipophilic trimethoprim analogues as antigonococcal agents” (J Med Chem, 1988)

How the values were obtained:
Rattus norvegicus [1] = assay: Conc in serum of female rat 6 hr after administration of dose; format: functional, organism-based
Rattus norvegicus [2] = assay: Conc in liver of male rat 0.50 hr after administration of dose; format: functional, organism-based
Rattus norvegicus [3] = assay: Conc in stomach of male rat 0.50 hr after administration of dose; format: functional, organism-based
Rattus norvegicus [4] = assay: Conc in testes of male rat 10h after administration of dose; format: functional, organism-based; settings: Testis
Rattus norvegicus [5] = assay: Conc in ovary of female rat 6 hr after administration of dose; format: functional, organism-based; settings: Female gonad
Rattus norvegicus [6] = assay: Conc in serum of male rat 24 hr after administration of dose; format: functional, organism-based
Rattus norvegicus [7] = assay: Conc in serum of male rat 3h after administration of dose; format: functional, organism-based
Rattus norvegicus [8] = assay: Conc in brain of male rat 10h after administration of dose; format: functional, organism-based
Rattus norvegicus [9] = assay: Conc in intestine of male rat 0.50 hr after administration of dose; format: functional, organism-based
Rattus norvegicus [10] = assay: Conc in kidney of male rat 1 hr after administration of dose; format: functional, organism-based
Rattus norvegicus [11] = assay: Conc in lung of male rat 10h after administration of dose; format: functional, organism-based
Rattus norvegicus [12] = assay: Conc in muscle of male rat 24 hr after administration of dose; format: functional, organism-based; settings: Muscle tissue
Rattus norvegicus [13] = assay: Conc in muscle of male rat 0.50 hr after administration of dose; format: functional, organism-based; settings: Muscle tissue
Rattus norvegicus [14] = assay: Conc in brain of male rat 4 hr after administration of dose; format: functional, organism-based
Rattus norvegicus [15] = assay: Conc in serum of female rat 4 hr after administration of dose; format: functional, organism-based
Rattus norvegicus [16] = assay: Conc in brain of male rat 1.5h after administration of dose; format: functional, organism-based
Rattus norvegicus [17] = assay: Conc in muscle of male rat 0.75h after administration of dose; format: functional, organism-based; settings: Muscle tissue
Rattus norvegicus [18] = assay: Conc in serum of male rat 6 hr after administration of dose; format: functional, organism-based
Staphylococcus aureus = assay: Inhibition of growth of Staphylococcus aureus (CN491) measured as MIC compound/MIC Trimethoprim; format: functional
Rattus norvegicus [19] = assay: Conc in lung of male rat after 0.25 hr administration of dose; format: functional, organism-based
Rattus norvegicus [20] = assay: Conc in muscle of male rat 1.5h after administration of dose; format: functional, organism-based; settings: Muscle tissue
Rattus norvegicus [21] = assay: Conc in stomach of male rat 3h after administration of dose; format: functional, organism-based
Rattus norvegicus [22] = assay: Conc in stomach of male rat 0.75h after administration of dose; format: functional, organism-based
Rattus norvegicus [23] = assay: Conc in testes of male 1 hr rat after administration of dose; format: functional, organism-based; settings: Testis
Rattus norvegicus [24] = assay: Conc in liver of male rat 3h after administration of dose; format: functional, organism-based
Proteus vulgaris = assay: Inhibition of growth of Proteus vulgaris (CN329) measured as MIC compound/MIC Trimethoprim; format: functional
Rattus norvegicus [25] = assay: Conc in muscle of male rat 10h after administration of dose; format: functional, organism-based; settings: Muscle tissue
Rattus norvegicus [26] = assay: Conc in lung of male rat 4 hr after administration of dose; format: functional, organism-based
Rattus norvegicus [27] = assay: Conc in brain of male rat 0.25 hr after administration of dose; format: functional, organism-based
Rattus norvegicus [28] = assay: Conc in intestine of male rat 24 hr after administration of dose; format: functional, organism-based
Rattus norvegicus [29] = assay: Conc in ovary of female rat 24 hr after administration of dose; format: functional, organism-based; settings: Female gonad
Rattus norvegicus [30] = assay: Conc in lung of male rat 24 hr after administration of dose; format: functional, organism-based
Rattus norvegicus [31] = assay: Conc in ovary of female rat 0.50 hr after administration of dose; format: functional, organism-based; settings: Female gonad
Rattus norvegicus [32] = assay: Conc in brain of male rat 24 hr after administration of dose; format: functional, organism-based
Rattus norvegicus [33] = assay: Conc in serum of female rat 0.75h after administration of dose; format: functional, organism-based
Rattus norvegicus [34] = assay: Conc in ovary of female rat 10h after administration of dose; format: functional, organism-based; settings: Female gonad
Rattus norvegicus [35] = assay: Conc in intestine of male rat 2 hr after administration of dose; format: functional, organism-based

CC(C)c1cc(Cc2cnc(N)nc2N)cc(C(C)C)c1O
Concentration (Rattus norvegicus [1]): 0.34 µg/g | Concentration (Rattus norvegicus [2]): 29.9 µg/g | Concentration (Rattus norvegicus [3]): 304 µg/g | Concentration (Rattus norvegicus [4]): 0.66 µg/g | Concentration (Rattus norvegicus [5]): 0.71 µg/g | Concentration (Rattus norvegicus [6]): 0.08 µg/g | Concentration (Rattus norvegicus [7]): 0.47 µg/g | Concentration (Rattus norvegicus [8]): 0.04 µg/g | Concentration (Rattus norvegicus [9]): 114 µg/g | Concentration (Rattus norvegicus [10]): 7.78 µg/g | Concentration (Rattus norvegicus [11]): 0.4 µg/g | Concentration (Rattus norvegicus [12]): 0.04 µg/g | Concentration (Rattus norvegicus [13]): 1.45 µg/g | Concentration (Rattus norvegicus [14]): 0.19 µg/g | Concentration (Rattus norvegicus [15]): 0.53 µg/g | Concentration (Rattus norvegicus [16]): 0.65 µg/g | Concentration (Rattus norvegicus [17]): 2.31 µg/g | Concentration (Rattus norvegicus [18]): 0.27 µg/g | MIC ratio (Staphylococcus aureus): 10 | Concentration (Rattus norvegicus [19]): 2.52 µg/g | Concentration (Rattus norvegicus [20]): 1.84 µg/g | Concentration (Rattus norvegicus [21]): 8.92 µg/g | Concentration (Rattus norvegicus [22]): 319 µg/g | Concentration (Rattus norvegicus [23]): 1.32 µg/g | Concentration (Rattus norvegicus [24]): 9.56 µg/g | MIC ratio (Proteus vulgaris): 300 | Concentration (Rattus norvegicus [25]): 0.13 µg/g | Concentration (Rattus norvegicus [26]): 2.3 µg/g | Concentration (Rattus norvegicus [27]): 0.13 µg/g | Concentration (Rattus norvegicus [28]): 0.85 µg/g | Concentration (Rattus norvegicus [29]): 0.08 µg/g | Concentration (Rattus norvegicus [30]): 0.1 µg/g | Concentration (Rattus norvegicus [31]): 4.06 µg/g | Concentration (Rattus norvegicus [32]): 0.004 µg/g | Concentration (Rattus norvegicus [33]): 1.44 µg/g | Concentration (Rattus norvegicus [34]): 0.23 µg/g | Concentration (Rattus norvegicus [35]): 11.6 µg/g
